Drawing on patent publication US20240400555A1 (Initial Therapeutics, Inc., priority 2023, published 2024), this text covers IC50 for 28 compounds.

One may read the IC50 as the concentration that inhibits the measured activity by half.

The first assay relates to MV-4-11 cells. Put plainly: Cell Viability Assay in MV-4-11 Cells. The following applies: Homo sapiens, MV4-11, 72 h. The assay is classed as cell-based. The essentials:
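MV-4-11 cells at 7,000/well in IMDM with 10% FBS, exposed to compound for 72 h. Viability by CellTiter-Glo luminescence, normalized to DMSO as 100%, fitted with a four-parameter curve.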
For the compound `Cc1cccc2ccnc(N(C(=O)c3ccc(C#N)c(-c4ccc(-c5ccccc5)cc4)c3)[C@@H]3CCCNC3)c12` [Example 327, 4-cyano-N-(8-methyl-1-isoquinolyl)-3-(4-phenylphenyl)-N-[(3R)-3-piperidyl]benzamide], the IC50 came out at 2.7 µM.
With `Cc1csc2ccnc(N(C(=O)c3ccc(-c4nnn5c4COCC5)cc3F)[C@@H]3CCCNC3)c12` [Example 635, (R)-4-(6,7-dihydro-4H-[1,2,3]triazolo[5,1-c][1,4]oxazin-3-yl)-2-fluoro-N-(3-methylthieno[3,2-c]pyridin-4-yl)-N-(piperidin-3-yl)benzamide], the concentration for half-maximal inhibition (IC50) amounted to 0.1 µM.
Regarding `Cn1cc(-c2ccc(C(=O)N(c3nccc4sc(-c5cccc(C(=O)Nc6ccccc6)c5)cc34)[C@@H]3CCCNC3)c(F)c2)nn1` [Example 540, 2-fluoro-4-(1-methyltriazol-4-yl)-N-[2-[3-(phenylcarbamoyl)phenyl]thieno[3,2-c]pyridin-4-yl]-N-[(3R)-3-piperidyl]benzamide], the IC50 was 0.47 µM.

Staying with this assay, now noted: Homo sapiens, MV4-11, 72 h, MV-4-11 cells, 72 h, Cell-Titer Glo; read-out: IC50.
As to `O=C(c1ccc(-n2nnc3cccnc32)cc1F)N(c1nccc2sc(C3CC3)cc12)[C@@H]1CCCNC1` [Example 740, (R)-4-(3H-[1,2,3]triazolo[4,5-b]pyridin-3-yl)-N-(2-cyclopropylthieno[3,2-c]pyridin-4-yl)-2-fluoro-N-(piperidin-3-yl)benzamide], the IC50 was 0.6 µM.
As for `COCc1cn(-c2ccc(C(=O)N(c3nccc4cc(Cl)cc(C)c34)[C@@H]3CCCNC3)cn2)nn1` [Example 631, (R)—N-(6-chloro-8-methylisoquinolin-1-yl)-6-(4-(methoxymethyl)-1H-1,2,3-triazol-1-yl)-N-(piperidin-3-yl)nicotinamide], the IC50 is 0.1 µM.
On the same count and under the same terms, for `COC(=O)c1ccc(-c2cc3c(N(C(=O)c4ccc(-n5nnc6cccnc65)cc4F)[C@@H]4CCCNC4)nccc3s2)cc1` [Example 375, methyl 4-[4-[[2-fluoro-4-(triazolo[4,5-b]pyridin-3-yl)benzoyl]-[(3R)-3-piperidyl]amino]thieno[3,2-c]pyridin-2-yl]benzoate] the value was 0.6 µM.
Consider `CNC(=O)C#Cc1cc2c(N(C(=O)c3ccc(-n4nnc5cccnc54)cc3F)[C@@H]3CCCNC3)nccc2s1` [Example 549, 2-fluoro-N-[2-[3-(methylamino)-3-oxo-prop-1-ynyl]thieno[3,2-c]pyridin-4-yl]-N-[(3R)-3-piperidyl]-4-(triazolo [4,5-b]pyridin-3-yl)benzamide], for which the IC50 came out at 1.5 µM.
On to `COC(=O)c1ccnc(Nc2ccc(C(=O)N(c3nccc4cccc(C)c34)[C@@H]3CCCNC3)c(F)c2)n1` [Example 400, methyl (R)-2-((3-fluoro-4-((8-methylisoquinolin-1-yl)(piperidin-3-yl)carbamoyl)phenyl)amino)pyrimidine-4-carboxylate], for which the IC50 turned out to be 2.4 µM.
In the case of `COC[C@@H]1COCCN1c1ccnc(Nc2ccc(C(=O)N(c3nccc4cccc(C)c34)[C@@H]3CCCNC3)c(F)c2)n1` [Example 943, 2-fluoro-4-(4-((R)-3-(methoxymethyl)morpholino)pyrimidin-2-ylamino)-N-(8-methylisoquinolin-1-yl)-N—((R)-piperidin-3-yl)benzamide], the IC50 came to 0.08 µM.
Consider `O=C(c1ccc(-n2nnc3cccnc32)cc1F)N(c1nccc2sc(-c3csc(CO)n3)cc12)[C@@H]1CCCNC1` [Example 427, 2-fluoro-N-[2-[2-(hydroxymethyl)thiazol-4-yl]thieno[3,2-c]pyridin-4-yl]-N-[(3R)-3-piperidyl]-4-(triazolo[4,5-b]pyridin-3-yl)benzamide], for which the IC50 stood at 0.21 µM.
For `CC(=O)c1ccc2c(N(C(=O)c3ccc(-c4cn(C)nn4)cc3F)[C@@H]3CCCNC3)nccc2c1` [Example 610, (R)—N-(6-acetylisoquinolin-1-yl)-2-fluoro-4-(1-methyl-1H-1,2,3-triazol-4-yl)-N-(piperidin-3-yl)benzamide], the IC50 was 0.086 µM.
Still for that read-out and setting: for `Cc1cccc2ccnc(N(C(=O)c3ccc(Nc4nccc(N[C@H]5CC[C@H](O)CC5)n4)cc3F)[C@@H]3CCCNC3)c12` [Example 946, 2-fluoro-4-(4-((1r,4r)-4-hydroxycyclohexylamino)pyrimidin-2-ylamino)-N-(8-methylisoquinolin-1-yl)-N—((R)-piperidin-3-yl)benzamide] the value was 0.13 µM.
`COCc1nnc(-c2ccc(C(=O)N(c3nccc4cc(F)cc(C)c34)[C@@H]3CCCNC3)c(F)c2)s1` [Example 853, 2-fluoro-N-(6-fluoro-8-methyl-1-isoquinolyl)-4-[5-(methoxymethyl)-1,3,4-thiadiazol-2-yl]-N-[(3R)-3-piperidyl]benzamide]: the IC50 was determined as 0.055 µM.
Regarding `COCc1cn(-c2ccc(C(=O)N(c3nccc4cc(Cl)cc(C)c34)[C@@H]3CCCNC3)nc2)nn1` [Example 632, (R)—N-(6-chloro-8-methylisoquinolin-1-yl)-5-(4-(methoxymethyl)-1H-1,2,3-triazol-1-yl)-N-(piperidin-3-yl)picolinamide], the IC50 is 0.19 µM.
Regarding `COc1cc(C)c2c(N(C(=O)c3ccc(-c4nnc(C)s4)cc3)[C@@H]3CCCNC3)nccc2c1` [Example 866, N-(6-methoxy-8-methyl-1-isoquinolyl)-4-(5-methyl-1,3,4-thiadiazol-2-yl)-N-[(3R)-3-piperidyl]benzamide], the IC50 was found to be 0.052 µM.
Regarding `CNc1nccc(-c2cc3c(N(C(=O)c4ccc(-c5cn(C)nn5)cc4F)[C@@H]4CCCNC4)nccc3s2)n1` [Example 531, (R)-2-fluoro-4-(1-methyl-1H-1,2,3-triazol-4-yl)-N-(2-(2-(methylamino)pyrimidin-4-yl)thieno[3,2-c]pyridin-4-yl)-N-(piperidin-3-yl)benzamide], the IC50 was 0.43 µM.
For `CCc1nnc(-c2ccc(C(=O)N(c3nccc4sc(C)nc34)[C@@H]3CCCNC3)c(F)c2)s1` [Example 667, (R)-4-(5-ethyl-1,3,4-thiadiazol-2-yl)-2-fluoro-N-(2-methylthiazolo[4,5-c]pyridin-4-yl)-N-(piperidin-3-yl)benzamide], the IC50 came out at 0.055 µM.
Take `Cn1cc(-c2ccc(C(=O)N(c3nccc4cc(-c5cnn(CCO)c5)ccc34)[C@@H]3CCCNC3)c(F)c2)nn1` [Example 492, (R)-2-fluoro-N-(6-(1-(2-hydroxyethyl)-1H-pyrazol-4-yl)isoquinolin-1-yl)-4-(1-methyl-1H-1,2,3-triazol-4-yl)-N-(piperidin-3-yl)benzamide]: the IC50 was 0.87 µM.
Take `CC(=O)N1CCN(c2ccnc(Nc3ccc(C(=O)N(c4nccc5cccc(C)c45)[C@@H]4CCCNC4)c(F)c3)n2)CC1` [Example 933, (R)-4-((4-(4-acetylpiperazin-1-yl)pyrimidin-2-yl)amino)-2-fluoro-N-(8-methylisoquinolin-1-yl)-N-(piperidin-3-yl)benzamide]: the IC50 worked out at 0.18 µM.
Turning to `Cn1cc(-c2ccc3c(N(C(=O)c4ccc(-c5cn(C)nn5)cc4F)[C@@H]4CCCNC4)nccc3c2)cn1` [Example 445, (R)-2-fluoro-4-(1-methyl-1H-1,2,3-triazol-4-yl)-N-(6-(1-methyl-1H-pyrazol-4-yl)isoquinolin-1-yl)-N-(piperidin-3-yl)benzamide], the IC50 stood at 0.29 µM.
Consider `Cn1cc(-c2ccc(C(=O)N(c3nccc4cccc(C=CCO)c34)[C@@H]3CCCNC3)cc2)nn1` (stereo in doubt) [Example 338, (R,Z)—N-(8-(3-hydroxyprop-1-en-1-yl)isoquinolin-1-yl)-4-(1-methyl-1H-1,2,3-triazol-4-yl)-N-(piperidin-3-yl)benzamide], for which the IC50 was > 10 µM.
As to `[2H]C([2H])([2H])c1nnc(-c2ccc(C(=O)N(c3nccc4cc(OC)cc(C)c34)[C@@H]3CCCNC3)cn2)s1` [Example 905, N-(6-methoxy-8-methyl-1-isoquinolyl)-N-[(3R)-3-piperidyl]-6-[5-(trideuteriomethyl)-1,3,4-thiadiazol-2-yl]pyridine-3-carboxamide], the IC50 stood at 0.062 µM.
As for `Cc1nnc(-c2ccc(C(=O)N(c3nccc4cc(F)ccc34)[C@@H]3CCCNC3)cc2)s1` [Example 804, (R)—N-(6-fluoroisoquinolin-1-yl)-4-(5-methyl-1,3,4-thiadiazol-2-yl)-N-(piperidin-3-yl)benzamide], the IC50 worked out at 0.98 µM.
`COc1cc(-n2nnc3cccnc32)ccc1C(=O)N(c1nccc2cccc(C)c12)[C@@H]1CCCNC1` [Example 308, (R)-4-(3H-[1,2,3]triazolo[4,5-b]pyridin-3-yl)-2-methoxy-N-(8-methylisoquinolin-1-yl)-N-(piperidin-3-yl)benzamide]: the IC50 worked out at 0.025 µM.
Regarding `Cc1cc(Cl)cc2ccnc(N(C(=O)c3ccc(-c4nnn(C)c4CO)cc3F)[C@@H]3CCCNC3)c12` [Example 618, (R)—N-(6-chloro-8-methylisoquinolin-1-yl)-2-fluoro-4-(5-(hydroxymethyl)-1-methyl-1H-1,2,3-triazol-4-yl)-N-(piperidin-3-yl)benzamide], the IC50 turned out to be 0.053 µM.
As to `Cc1csc2ccnc(N(C(=O)c3ccc(-c4cc(Cl)cnn4)cc3F)[C@@H]3CCCNC3)c12` [Example 768, (R)-4-(5-chloropyridazin-3-yl)-2-fluoro-N-(3-methylthieno[3,2-c]pyridin-4-yl)-N-(piperidin-3-yl)benzamide], the IC50 was found to be 0.092 µM.
For `CCC(C)N(C)c1ccnc(Nc2ccc(C(=O)N(c3nccc4cccc(C)c34)[C@@H]3CCCNC3)c(F)c2)n1` (stereo partly drawn) [Example 952, 4-((4-(sec-butyl(methyl)amino)pyrimidin-2-yl)amino)-2-fluoro-N-(8-methylisoquinolin-1-yl)-N—((R)-piperidin-3-yl)benzamide], the 50% inhibitory concentration (IC50) is 0.13 µM.
For `Cc1cccc2ccnc(N(C(=O)c3ccc(Nc4nccc(C5=CCOCC5)n4)cc3F)[C@@H]3CCCNC3)c12` [Example 685, (R)-4-((4-(3,6-dihydro-2H-pyran-4-yl)pyrimidin-2-yl)amino)-2-fluoro-N-(8-methylisoquinolin-1-yl)-N-(piperidin-3-yl)benzamide], the IC50 is 0.049 µM.
